Laboratory results taken from patent US20140163050A1, “Use of 1H-quinazoline-2,4-diones” (priority 2011, published 2014).
Where “and” joins values, the source holds several entries; their conditions need not be identical. Identical values can stand only once. Entries after “also recorded” stand apart in the source; their conditions may differ.

System: patients with PSE
Experiment: IPS/PPR proof of concept study: suppression of PPR or reduction of SPR after single oral doses
Assay type: in vivo, human
Set-up: key to Maximum reduction of SPR: Overall reduction, Median: SPR steps (number of frequencies eliciting PPR), range 0-14
Conditions: for duration of maintained suppression of PPR: 2 individual patients; for PD effect of C7 / Effect maintained: reduction of SPR (≧3) / Effect maintained: suppression of PPR / Onset Time of reduction of SPR (≧3) / Onset Time of suppression of PPR: individual patients
Experimental: In patients with photosensitive epilepsy, a standardized photoparoxysmal response range (SPR) may be determined by performing the IPS with a standardized series of flash frequencies, for instance 14 frequencies from a range of 2 to 60 Hz. SPR is a dimensionless parameter and is defined as the number of frequencies (steps) between the lowest and highest frequencies, e.g. between 2 and 60 Hz, that consistently elicit a PPR. If 14 frequencies are tested, the minimum and maximum possible SPR values are 0 and 14. Zero means complete abolition of reactivity on any stimulation frequency, i.e. complete abolishment of the PPR. SPR is relatively stable for each patient and reflects the liability for seizures in daily life. The potential efficacy of an AED could be assessed by measuring hourly changes in the SPR after a single oral dose given to the PSE patients.
The study used the IPS/PPR paradigm. It was a multicenter, non-randomized, single blind, within-subject, placebo-controlled proof of concept study conducted to assess the effect of single oral doses of the compounded formula C-7 in suppressing the photoparoxysmal response (PPR) or reducing the standardized photoparoxysmal response range (SPR) in patients with PSE. Photosensitivity was detected using electroencephalography (EEG) measurements of subjects exposed to Intermittent Photic Stimulation (IPS). This EEG response was a photoparoxysmal response (PPR). For the purpose of the study, provocation of PPRs by IPS, not of seizures, was required. The SPR of each patient was the number of standard visual stimulation frequencies (in Hertz) that the patient was sensitive to, between the lower and upper thresholds. 14 frequencies were tested (from 2 to 60 Hertz). The time of onset and the duration of response (PPR suppression or SPR reduction) to the treatment with Compound C-7 in patients with PSE and the maximal reduction in SPR in patients with PSE were also evaluated.
Women of child-bearing potential (WOCBP) were asked to use acceptable methods of contraception. Patients with an SPR value of 3 or less at the screening and patients with no consistent PPR (less than 3 SPR steps difference between the two evaluations required) when stimulated by intermittent photic stimulation (IPS), as determined by comparison between screening and pre-dose Day 1, were excluded from the study. Furthermore subjects with history of status epilepticus and/or regular use of benzodiazepines as rescue medication, subjects with evidence or history of any medically significant cardiac, respiratory, hepatic, gastrointestinal, renal, hematologic, oncologic or progressive neurological disorder, requiring current medical intervention/therapy likely to have a significant impact on the outcome of this study, were also excluded.
There were three periods: a screening period for the assessment of patient's eligibility for participation in the study; a 3-day in hospital treatment period with single-blind dosing with placebo on days 1 and 3, and the compound of formula C-7 on day 2; and a study completion period consisting of a follow-up call by the medical investigator to the patient between day 10 and day 14 inclusive and a full study completion visit between day 29 and day 33 inclusive.
The dose of the compound of formula C-7 in Cohort studies I, II and III was 50, 100 and 15 mg respectively.

CC(C)c1cc2[nH]c(=O)n(NS(C)(=O)=O)c(=O)c2cc1-c1ccnn1C [Compound C-7, N-[7-Isopropyl-6-(2-methyl-2H-pyrazol-3-yl)-2,4-dioxo-1,4-dihydro-2H-quinazolin-3-yl]-methanesulfonamide]
magnitude of the post-treatment effect between doses (15, 50, 100 mg): dose dependent | PD effect compared to C-7 50 and 100 mg dose groups (C-7 15 mg dose group): numerically markedly lower PD effect; also recorded: numerically lower but still measurable PD effect | proportion of subjects with suppression of PPR (C-7 15 mg dose group): 33% | patients with complete suppression of PPR (C-7 15 mg dose group (Cohort III), Day 2): 1 out of 3 and 1 of 3 | maintenance of SPR response and PPR suppression (C-7 15 mg group): none of the patients maintained the SPR response; also recorded: neither the SPR response nor suppression of PPR was maintained | onset of suppression of PPR post dosing (C-7 15 mg group, one patient, eye open only, not maintained): 2 h | Maximum reduction of SPR: Overall reduction, Mean (SD) (C-7 15 mg, eye closed, n=3): 6.7 (1.15) | Maximum reduction of SPR: Overall reduction, Median (C-7 15 mg, eye closed, n=3): 6.0 | Maximum reduction of SPR: Reduction from predose Day 2, Mean (SD) (C-7 15 mg, eye closed, n=3): 5.0 (3.61) | Maximum reduction of SPR: Reduction from predose Day 2, Median (C-7 15 mg, eye closed, n=3): 6.0 | Maximum reduction of SPR: Overall reduction, Mean (SD) (C-7 15 mg, eye closure, n=3): 8.0 (1.73) | Maximum reduction of SPR: Overall reduction, Median (C-7 15 mg, eye closure, n=3): 9.0 | Maximum reduction of SPR: Reduction from predose Day 2, Mean (SD) (C-7 15 mg, eye closure, n=3): 7.3 (2.89) | Maximum reduction of SPR: Reduction from predose Day 2, Median (C-7 15 mg, eye closure, n=3): 9.0 | Maximum reduction of SPR: Overall reduction, Mean (SD) (C-7 15 mg, eyes open, n=3): 4.0 (3.46) | Maximum reduction of SPR: Overall reduction, Median (C-7 15 mg, eyes open, n=3): 2.0 | Maximum reduction of SPR: Reduction from predose Day 2, Mean (SD) (C-7 15 mg, eyes open, n=3): 3.0 (4.36) | Maximum reduction of SPR: Reduction from predose Day 2, Median (C-7 15 mg, eyes open, n=3): 1.0 | AUECt on Day 2 compared to Day 1 (C-7 50 mg and 100 mg dose groups, all eye conditions): significantly lower | proportion of subjects with suppression of PPR (C-7 50 mg dose group): 50% | patients with complete suppression of PPR (C-7 50 mg dose group (Cohort I), Day 2): 3 of 6 | patients with reductions of the SPR range by at least 3 steps in at least one eye condition (C-7 50 mg dose group (Cohort I, 6 patients), Day 2): 6 patients | duration of maintained suppression of PPR (C-7 50 mg group): 2 h and 7 h | Maximum reduction of SPR: Overall reduction, Mean (SD) (C-7 50 mg, eye closed, n=6): 6.0 (2.37) | Maximum reduction of SPR: Overall reduction, Median (C-7 50 mg, eye closed, n=6): 6.0 | Maximum reduction of SPR: Reduction from predose Day 2, Mean (SD) (C-7 50 mg, eye closed, n=6): 5.0 (2.00) | Maximum reduction of SPR: Reduction from predose Day 2, Median (C-7 50 mg, eye closed, n=6): 5.0 | Maximum reduction of SPR: Overall reduction, Mean (SD) (C-7 50 mg, eye closure, n=6): 7.7 (3.01) | Maximum reduction of SPR: Overall reduction, Median (C-7 50 mg, eye closure, n=6): 8.5 | Maximum reduction of SPR: Reduction from predose Day 2, Mean (SD) (C-7 50 mg, eye closure, n=6): 6.5 (2.95) | Maximum reduction of SPR: Reduction from predose Day 2, Median (C-7 50 mg, eye closure, n=6): 7.5 | Maximum reduction of SPR: Overall reduction, Mean (SD) (C-7 50 mg, eyes open, n=6): 6.8 (2.99) | Maximum reduction of SPR: Overall reduction, Median (C-7 50 mg, eyes open, n=6): 7.5 | Maximum reduction of SPR: Reduction from predose Day 2, Mean (SD) (C-7 50 mg, eyes open, n=6): 4.8 (3.43) | Maximum reduction of SPR: Reduction from predose Day 2, Median (C-7 50 mg, eyes open, n=6): 6.5 | proportion of subjects with suppression of PPR (C-7 100 mg dose group): 75% | time to maximum reduction of SPR compared to the other 2 dose groups (C-7 100 mg dose group): shorter | patients with complete suppression of PPR (C-7 100 mg dose group (Cohort II), Day 2): 3 out of 4 and 3 of 4 | duration of maintained suppression of PPR (C-7 100 mg group): 4 h and 3 h | Maximum reduction of SPR: Overall reduction, Mean (SD) (C-7 100 mg, eye closed, n=4): 7.5 (2.38) | Maximum reduction of SPR: Overall reduction, Median (C-7 100 mg, eye closed, n=4): 8.5 | Maximum reduction of SPR: Reduction from predose Day 2, Mean (SD) (C-7 100 mg, eye closed, n=4): 6.5 (2.38) | Maximum reduction of SPR: Reduction from predose Day 2, Median (C-7 100 mg, eye closed, n=4): 6.5 | Maximum reduction of SPR: Overall reduction, Mean (SD) (C-7 100 mg, eye closure, n=4): 9.3 (2.22) | Maximum reduction of SPR: Overall reduction, Median (C-7 100 mg, eye closure, n=4): 10.0 | Maximum reduction of SPR: Reduction from predose Day 2, Mean (SD) (C-7 100 mg, eye closure, n=4): 8.3 (1.50) | Maximum reduction of SPR: Reduction from predose Day 2, Median (C-7 100 mg, eye closure, n=4): 9.0 | Maximum reduction of SPR: Overall reduction, Mean (SD) (C-7 100 mg, eyes open, n=4): 8.8 (2.50) | Maximum reduction of SPR: Overall reduction, Median (C-7 100 mg, eyes open, n=4): 8.5 | Maximum reduction of SPR: Reduction from predose Day 2, Mean (SD) (C-7 100 mg, eyes open, n=4): 7.0 (1.41) | Maximum reduction of SPR: Reduction from predose Day 2, Median (C-7 100 mg, eyes open, n=4): 6.5 | maximum duration of maintenance of suppression of PPR (C-7 50 and 100 mg dose groups): 7 h | duration of maintained SPR response (maximum duration of maintenance) (C-7 50 and 100 mg dose groups, patients staying in responding status): 33 h | PD effect of C7 (Cohort I, C-7 50 mg single oral dose): Suppression of PPR^e; also recorded: Reduction of SPR (≧3) | Effect maintained: reduction of SPR (≧3) (Cohort I, C-7 50 mg): No (4×) and Yes (2×) | Effect maintained: suppression of PPR (Cohort I, C-7 50 mg): No (2×) and Yes (2×) | Onset Time of reduction of SPR (≧3) (Cohort I, C-7 50 mg): 2 h (2×) and 1 h (3×) | Onset Time of suppression of PPR (Cohort I, C-7 50 mg): 2 h and 3 h and 4 h | PD effect of C7 (Cohort II, C-7 100 mg single oral dose): Suppression of PPR; also recorded: Reduction of SPR (≧3) | Effect maintained: reduction of SPR (≧3) (Cohort II, C-7 100 mg): No (3×) and Yes | Effect maintained: suppression of PPR (Cohort II, C-7 100 mg): Yes (2×) and No | Onset Time of reduction of SPR (≧3) (Cohort II, C-7 100 mg): 1 h (3×) and 2 h | Onset Time of suppression of PPR (Cohort II, C-7 100 mg): 2 h (2×) and 3 h | PD effect of C7 (Cohort III, C-7 15 mg single oral dose): Suppression of PPR^e; also recorded: Reduction of SPR (≧3) | Effect maintained: reduction of SPR (≧3) (Cohort III, C-7 15 mg): No | Effect maintained: suppression of PPR (Cohort III, C-7 15 mg): No | Onset Time of reduction of SPR (≧3) (Cohort III, C-7 15 mg): 1 h | Onset Time of suppression of PPR (Cohort III, C-7 15 mg): 2 h | patients with reductions of the SPR range by at least 3 steps in at least one eye condition (Cohorts II and III (100 mg and 15 mg, 7 patients), Day 2): 7 patients | patients who showed suppression of PPR (Table 2 count) (all dose groups, 13 patients, includes suppression noted already at 0 hours): 9 patients | patients with complete suppression of PPR (all three dose groups (15, 50, 100 mg)): 7 of the 13 and 7 of 13 | impact of concomitant treatment with selected AEDs on the PD effect of C-7 (valproate, lamotrigine, levetiracetam, topiramate, zonisamide as concomitant AEDs): did not appear to relevantly impact the PD effect
